Source: US10519134B2, “Pyrazole compounds and methods of making and using same” (Lundbeck La Jolla Research Center, Inc., priority 2015, dated 2019)

Columns and labels:
[1] = molecular target: T1, MAGL (Mus musculus, UniProt O35678); experiment: In vitro competitive activity-based protein profiling (mouse), MAGL gel band; assay type: biochemical; settings: for IC50: mouse; for inhibition at 1 µM: read-out: MAGL % inh. 1 μM
T1 construct: Proteomes (mouse brain membrane fraction or cell lysates); from tissue; host or cells: mouse brain membrane fraction (or cell lysates)
T1 sequence (O35678 1-303): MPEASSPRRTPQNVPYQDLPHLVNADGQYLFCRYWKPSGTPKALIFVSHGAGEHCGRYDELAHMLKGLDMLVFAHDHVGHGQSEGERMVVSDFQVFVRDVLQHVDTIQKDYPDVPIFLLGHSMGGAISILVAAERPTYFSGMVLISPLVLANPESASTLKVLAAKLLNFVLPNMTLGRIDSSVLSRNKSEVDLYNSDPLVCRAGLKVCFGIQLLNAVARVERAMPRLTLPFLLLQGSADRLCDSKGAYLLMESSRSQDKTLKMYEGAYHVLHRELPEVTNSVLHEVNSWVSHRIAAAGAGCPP
Summary of the method: (§1)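 Residual enzyme activity is taken from in-gel fluorescence after SDS-PAGE. Proteome from mouse brain membranes or cell lysates (total protein 1.0 mg/mL) sees inhibitor for 30 min, then FP-Rh or HT-01 probe (50 μM DMSO stock) for 30 min, both steps at 37 °C.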

[2] = molecular target: T2, MAGL (Homo sapiens, UniProt Q99685); experiment: In vitro competitive activity-based protein profiling (human), MAGL gel band; assay type: biochemical
T2 construct: Proteomes (human prefrontal cortex or cell membrane fractions); from tissue; host or cells: human prefrontal cortex (or cell membrane fractions)
T2 sequence (Q99685 1-303): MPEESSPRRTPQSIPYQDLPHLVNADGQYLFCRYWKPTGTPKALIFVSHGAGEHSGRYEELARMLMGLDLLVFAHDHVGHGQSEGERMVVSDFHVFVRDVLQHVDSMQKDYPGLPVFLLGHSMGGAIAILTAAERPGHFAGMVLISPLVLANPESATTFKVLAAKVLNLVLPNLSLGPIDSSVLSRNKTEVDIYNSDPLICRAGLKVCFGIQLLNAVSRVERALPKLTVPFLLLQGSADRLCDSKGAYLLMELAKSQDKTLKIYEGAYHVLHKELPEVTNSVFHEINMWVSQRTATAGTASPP
Summary of the method: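 Human prefrontal cortex or cell membrane proteomes (1.0-2.0 mg/mL protein) preincubated with inhibitors 30 min at 37° C, then labelled with FP-Rh or JW912 probe 30 min at room temperature. Residual MAGL activity read as fluorescent gel-band intensity after SDS-PAGE.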

[3] = molecular target: T1, MAGL; experiment: Mouse brain proteomes from inhibitor treated mice (oral gavage, sacrificed 4 h after administration); assay type: in vivo; settings: read-out: MAGL % inh. 5 mg/kg
Summary of the method: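 Brains were collected 4 h after oral gavage dosing of wild-type C57Bl/6J mice, vehicle polyethylene glycol. Proteomes from these brains were then analyzed for MAGL and other serine hydrolase activity.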

[4] = molecular target: T3, FAAH (Mus musculus, UniProt O08914); experiment: In vitro competitive activity-based protein profiling (mouse), FAAH gel band; assay type: biochemical; settings: for IC50: mouse; for inhibition at 1 µM: read-out: FAAH % inh. 1 μM
T3 construct: Proteomes (mouse brain membrane fraction or cell lysates); from tissue; host or cells: mouse brain membrane fraction (or cell lysates)
T3 sequence (O08914 1-579): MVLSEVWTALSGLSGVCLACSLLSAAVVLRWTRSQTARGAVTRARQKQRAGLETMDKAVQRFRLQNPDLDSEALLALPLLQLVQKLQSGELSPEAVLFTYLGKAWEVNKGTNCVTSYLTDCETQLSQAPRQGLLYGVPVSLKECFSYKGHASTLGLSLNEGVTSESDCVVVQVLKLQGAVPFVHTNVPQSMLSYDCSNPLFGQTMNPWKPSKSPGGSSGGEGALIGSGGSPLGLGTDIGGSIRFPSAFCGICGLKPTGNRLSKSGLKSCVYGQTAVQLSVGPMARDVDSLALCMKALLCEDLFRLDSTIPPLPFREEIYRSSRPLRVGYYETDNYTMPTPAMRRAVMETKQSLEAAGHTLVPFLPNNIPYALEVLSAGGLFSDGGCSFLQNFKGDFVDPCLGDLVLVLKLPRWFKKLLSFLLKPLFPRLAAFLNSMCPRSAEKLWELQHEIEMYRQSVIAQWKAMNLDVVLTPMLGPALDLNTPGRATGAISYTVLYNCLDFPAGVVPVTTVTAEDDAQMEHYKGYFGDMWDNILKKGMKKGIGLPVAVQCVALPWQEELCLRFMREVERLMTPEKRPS
Summary of the method: as §1

SMILES | IC50 [1] | inhibition at 1 µM [1] | IC50 [2] | inhibition at 5 mg/kg [3] | IC50 [4] | inhibition at 1 µM [4]
CC(=O)Nc1ccn(C(=O)N2CCN(Cc3ccc(C(F)(F)F)cc3N3CCC4(CCOCC4)C3)CC2)n1 [Example 45, N-(1-(4-(2-(8-oxa-2-azaspiro[4.5]decan-2-yl)-4-(trifluoromethyl)benzyl)piperazine-1-carbonyl)-1H-pyrazol-3-yl)acetamide] | ≤ 100 nM | ≥ 75% | 100 to 1000 nM | 0 to 25% | 1000 to 10000 nM | 0 to 25%
CS(=O)(=O)Nc1ccn(C(=O)N2CCN(Cc3ccc(Cl)c(N4CCN(C5CC5)CC4)c3)CC2)n1 [Example 202, N-(1-(4-(4-chloro-3-(4-cyclopropylpiperazin-1-yl)benzyl)piperazine-1-carbonyl)-1H-pyrazol-3-yl) methanesulfonamide] | – | ≥ 75% | ≤ 100 nM | 0 to 25% | – | 0 to 25%
CS(=O)(=O)Nc1ccn(C(=O)N2CCN(Cc3cc(Cl)ccc3N3CCOCC3)CC2)n1 [Example 123, N-(1-(4-(5-chloro-2-morpholinobenzyl)piperazine-1-carbonyl)-1H-pyrazol-3-yl) methanesulfonamide] | 100 to 1000 nM | ≥ 75% | ≤ 100 nM | 25 to 50% | 1000 to 10000 nM | 0 to 25%
CS(=O)(=O)Nc1ccn(C(=O)N2CCC3(CCCN3Cc3ccc(C(F)(F)F)cc3N3C[C@H]4CC[C@@H](C3)O4)CC2)n1 [Example 136, N-(1-(1-(2-((1R,5S)-8-oxa-3-azabicyclo[3.2.1]octan-3-yl)-4-(trifluoromethyl)benzyl)-1,8-diazaspiro[4.5]decane-8-carbonyl)-1H-pyrazol-3-yl) methanesulfonamide] | 100 to 1000 nM | ≥ 75% | ≤ 100 nM | 0 to 25% | 1000 to 10000 nM | 0 to 25%
CS(=O)(=O)Nc1ccn(C(=O)N2CCN(Cc3ccc(Cl)c(N4CC5COCC5C4)c3)CC2)n1 (stereo not drawn) [Example 203, N-(1-(4-(4-chloro-3-(tetrahydro-1H-furo[3,4-c]pyrrol-5(3H)-yl)benzyl)piperazine-1-carbonyl)-1H-pyrazol-3-yl) methanesulfonamide] | ≤ 100 nM | ≥ 75% | ≤ 100 nM | 0 to 25% | 1000 to 10000 nM | 0 to 25%
CC(=O)N1CC2CCC(C1)N2c1cc(C(F)(F)F)ccc1CN1CCN(C(=O)n2ccc(NS(C)(=O)=O)n2)CC1 [Example 207, N-(1-(4-(2-(3-acetyl-3,8-diazabicyclo[3.2.1]octan-8-yl)-4-(trifluoromethyl)benzyl)piperazine-1-carbonyl)-1H-pyrazol-3-yl) methanesulfonamide] | – | ≥ 75% | ≤ 100 nM | 0 to 25% | – | 0 to 25%
CS(=O)(=O)Nc1ccn(C(=O)N2CCN(Cc3ccc(Cl)c(N4CCC(F)CC4)c3)CC2)n1 [Example 201, N-(1-(4-(4-chloro-3-(4-fluoropiperidin-1-yl)benzyl)piperazine-1-carbonyl)-1H-pyrazol-3-yl) methanesulfonamide] | – | ≥ 75% | ≤ 100 nM | ≥ 75% | – | 0 to 25%
CS(=O)(=O)Nc1ccn(C(=O)N2CCN(Cc3ccc(C(F)(F)F)c(N4C5CCC4COC5)c3)CC2)n1 [Example 218, N-(1-(4-(3-(3-oxa-8-azabicyclo[3.2.1]octan-8-yl)-4-(trifluoromethyl)benzyl)piperazine-1-carbonyl)-1H-pyrazol-3-yl) methanesulfonamide] | – | ≥ 75% | ≤ 100 nM | 25 to 50% | – | 0 to 25%
CS(=O)(=O)Nc1ccn(C(=O)N2CCN(Cc3ccc(Cl)c(N4CCCC4)c3)CC2)n1 [Example 165, N-(1-(4-(4-chloro-3-(pyrrolidin-1-yl)benzyl)piperazine-1-carbonyl)-1H-pyrazol-3-yl) methanesulfonamide] | – | ≥ 75% | ≤ 100 nM | ≥ 75% | – | 0 to 25%

Results, then the compound that gave them:

IC50 [1] | inhibition at 1 µM [1] | IC50 [2] | inhibition at 5 mg/kg [3] | IC50 [4] | inhibition at 1 µM [4] | SMILES
≤ 100 nM | ≥ 75% | ≤ 100 nM | 0 to 25% | 1000 to 10000 nM | 0 to 25% | CS(=O)(=O)Nc1ccn(C(=O)N2CCN(Cc3cccc(Cl)c3N3CC4CCC(C3)O4)CC2)n1 [Example 288, N-(1-(4-(2-(8-oxa-3-azabicyclo[3.2.1]octan-3-yl)-3-chlorobenzyl)piperazine-1-carbonyl)-1H-pyrazol-3-yl) methanesulfonamide]
≤ 100 nM | ≥ 75% | ≤ 100 nM | ≥ 75% | 1000 to 10000 nM | 0 to 25% | CC(=O)Nc1ccn(C(=O)N2CCC3(CCCN3Cc3ccc(C)c(Cl)c3)CC2)n1 [Example 96, N-(1-(1-(3-chloro-4-methylbenzyl)-1,8-diazaspiro[4.5]decane-8-carbonyl)-1H-pyrazol-3-yl)acetamide]
≤ 100 nM | ≥ 75% | ≤ 100 nM | ≥ 75% | 1000 to 10000 nM | 0 to 25% | CC(=O)Nc1ccn(C(=O)N2CCC3(CCCN3Cc3ccc(Cl)c(C)c3)CC2)n1 [Example 94, N-(1-(1-(4-chloro-3-methylbenzyl)-1,8-diazaspiro[4.5]decane-8-carbonyl)-1H-pyrazol-3-yl)acetamide]
– | ≥ 75% | ≤ 100 nM | ≥ 75% | – | 0 to 25% | [2H]C([2H])([2H])c1cc(CN2CCCC23CCN(C(=O)n2ccc(NC(C)=O)n2)CC3)ccc1Cl [Example 294, N-(1-(1-(4-chloro-3-(methyl-d3)benzyl)-1,8-diazaspiro[4.5]decane-8-carbonyl)-1H-pyrazol-3-yl)acetamide]
– | ≥ 75% | ≤ 100 nM | 0 to 25% | – | 0 to 25% | CS(=O)(=O)Nc1ccn(C(=O)N2CCN(Cc3ccc(C(F)(F)F)cc3-c3nncs3)CC2)n1 [Example 114, N-(1-(4-(2-(1,3,4-thiadiazol-2-yl)-4-(trifluoromethyl)benzyl)piperazine-1-carbonyl)-1H-pyrazol-3-yl)methanesulfonamide]
– | ≥ 75% | ≤ 100 nM | 0 to 25% | – | 0 to 25% | CS(=O)(=O)Nc1ccn(C(=O)N2CCN(Cc3ccc(Cl)c(N4CC5CN(S(C)(=O)=O)CC5C4)c3)CC2)n1 (stereo not drawn) [Example 217, N-(1-(4-(4-chloro-3-(5-(methylsulfonyl)hexahydropyrrolo[3,4-c]pyrrol-2(1H)-yl)benzyl)piperazine-1-carbonyl)-1H-pyrazol-3-yl) methanesulfonamide]
≤ 100 nM | ≥ 75% | ≤ 100 nM | ≥ 75% | 1000 to 10000 nM | 0 to 25% | CS(=O)(=O)Nc1ccn(C(=O)N2CCN(Cc3cc(N4CCCC4)cc(C(F)(F)F)c3)CC2)n1 [Example 156, N-(1-(4-(3-(pyrrolidin-1-yl)-5-(trifluoromethyl)benzyl)piperazine-1-carbonyl)-1H-pyrazol-3-yl) methanesulfonamide]
– | ≥ 75% | ≤ 100 nM | 25 to 50% | – | 0 to 25% | CS(=O)(=O)Nc1ccn(C(=O)N2CCC3(CCCN3Cc3ccc(C(F)(F)F)cc3N3CC4COCC4C3)CC2)n1 (stereo not drawn) [Example 199, N-(1-(1-(2-(tetrahydro-1H-furo[3,4-c]pyrrol-5(3H)-yl)-4-(trifluoromethyl)benzyl)-1,8-diazaspiro[4.5]decane-8-carbonyl)-1H-pyrazol-3-yl) methanesulfonamide]
